Data: patent publication US5434295A (priority 1994, dated 1995)
Entries after “also recorded” stand apart in the source; their conditions may differ.

Key:
[1] = system: quisqualate-induced toxicity in primary cerebral cortical cell cultures; experiment: Protection of cortical neurons in culture from quisqualate-induced toxicity; format: cell-based; settings: Rattus norvegicus, Cortical neurone; 10 μM compound; quisqualate 500 μM; read-out: % of cells rescued from quisqualate-induced toxicity
Protocol: The neuroprotective effects of the compounds of the invention were tested on neurons exposed to various excitotoxins in culture. The compounds tested included HU-259, HU-260, HU-270 and HU-271, which were all shown to have NMDA antagonist properties in mice (Example 13).
The test drugs were examined for their ability to protect neurons in culture from toxic effects of agonists of the different glutamate receptor subtypes (agonists of ionotropic and/or metabotropic glutamate receptors), e.g. NMDA, AMPA, kainate and quisqualate. The culture conditions and assay conditions were all performed as described in Eshhar et al. (NeuroReport 5, No. 3, 1993). In brief, primary cerebral cortical cell cultures were prepared from 18-20 day old rat fetuses by enzymatic dissociation. Resulting cell suspensions were plated on confluent cortical glial cell feder layer (prepared 2 weeks earlier by a similar method). […] Cell viability was determined morphologically following neuron specific enolase immunostaining of cells using the ABC biotin-avidin complex method, and determined quantitatively by measuring the extent of mitochondrial activity in living cells using the XTT-based assay. […] The density of color formation (O.D.), which is proportional to mitochondrial activity, was measured by a plate ELISA reader. The extent of neuroprotectant activity is expressed as % of cells rescued by the drugs tested.

[2] = Lipophilicity / solubility (statement); format: physicochemical
Protocol: (§1) Sci., 82, 1069-1079 (1993).
Several NMDA receptor blockers were tested. These compounds have […] and have to be dissolved in 100% dimethyl sulfoxide (DMSO) and diluted for use in ND-96 that contained 1% DMSO. Therefore, the effect of 1% DMSO on the response to 10^-4 M NMDA and 5×10^-6 M glycine was examined. DMSO had no effect on NMDA response in three different cells.

[3] = system: intraocular pressure (IOP); experiment: Ocular hypotensive activity (intraocular pressure) in albino rabbits; format: in vivo, albino rabbit; settings: for Max ΔIOP: ** drug vs. vehicle P < 0.01
Protocol: Bicyclic compounds of the present invention were also tested for IOP lowering effects.
as §1
The phospholipids and HU-259 were dissolved in the stabilized oily phase. The other excipients were dissolved in the aqueous phase. Both phases were heated separately to 70° C. and dispersed by a magnetic stirrer. Emulsification was completed using a "high speed mixer" for 5 min at 85° C. The resulting emulsion was cooled rapidly below 20° C. and homogenized using a two-stage homogenizing valve assembly (Gaulin Homogenizer, APV Gaulin, Hilversum, The Netherlands) for 5 min. All the manufacturing procedures were carried out under aseptic conditions and a nitrogen atmosphere. The pH was adjusted to 7.4 using a sodium hydroxide solution (10%). The final fine emulsion was filtered to achieve sterility and stored in ampoules. A typical formulation (%, w/w) consisted of the following: HU-259, 0.2%; oily phase, 20.0%; purified fractionated egg phospholipids, 1.2%; nonionic emulsifier, 2%; glycerin, 2.25%; α-tocopherol, 0.02%; methyl and butyl p-hydroxy- benzoic ester, 0.3 and 0.075%, respectively; and water for injection, to 100.0 g. The control emulsion vehicle was prepared using identical experimental conditions but without drug.
IOP was measured by using a pneumatonometer (Digilab T30). Pressure readings were calibrated for verification every 6 h. One drop (50 μl) of local anesthetic (Benoxinate HCl, 0.4% Fischer [Isr] diluted 1:3 with sterile saline) was instilled into each eye prior to IOP measurements.

[4] = system: cerebral ischemia in gerbils; experiment: Neurobehavioral scores in gerbils after bilateral common carotid artery occlusion; format: in vivo, Mongolian gerbils
Description: Inhibition of ischemic neuronal damage in gerbils: Temporary blockage of the blood supply to the gerbil brain by surgical ligation of the two major arteries (common carotids) results in transient global forebrain ischemia. Temporary global ischemia produces a delayed, selective degeneration of neurons in the hippocampus, a brain structure essential for memory formation. The ability of various compounds to prevent hippocampal cell loss and the attendant memory deficits is considered a measure of their potency as neuroprotectants in ischemic conditions.
The data are presented as average differential scores between the initial score obtained 5 hrs post-ischemia and that obtained on each successive day. The drug was administered intravenously 30 min post-ischemia.
Mongolian gerbils (male), 65-70 gr (Tumblebrook Farm) underwent the ischemic procedure while anaesthetised with equithisine.
Common carotid arteries (CCA) were isolated and 3-0 silk suture material was positioned loosely round them. The tips of each loop were tied together, and the suture material was buried beside the trachea. The ventral neck incision was then sutured. In the following day, they were lightly anaesthetised with ether, the neck skin wounds were opened and both CCA were occluded for 10 minutes using small artery clips. During the ischemia and until the animals recovered (regaining righting reflexes), they were maintained in a warm state (36.5°-37.5° C. rectal temperature). Thirty minutes following onset of ischemia, animals were reanaesthetised (ether) and the appropriate drug was administered I.V. via the femoral vein.
Clinical evaluation. […] This was done every 24 hours, for the entire 96-hour period. […]
Statistics. Neuroclinical appearance was analyzed using Wilcoxon Rank Sum Test. The histopathological evaluation was analyzed using One-Way ANOVA followed by Duncan's Test.
Gerbils were scored for their clinical symptoms following the ischemic insult according to the system described by Rudolphi et al. (Table 4). Each animal was evaluated daily over 4 consecutive days (Day 1 being the day of CCA occlusion). […]

SMILES	inhibition at 10 µM [1] [%]	lipophilicity [2]	AUC (from instillation of treatment until return to baseline IOP) ([3]; contralateral eye) [mmHg × hrs]	contralateral eye pressure lowered by ([3]; contralateral eye, single dose application) [mmHg]	Max ΔIOP ([3]; contralateral eye) [mmHg]	time of maximal ocular hypotensive effect ([3]; post-application) [h]	time at which pressure returned to baseline level ([3]; post-treatment) [h]	duration of statistically significant reduction in IOP compared to vehicle ([3]; single dose 30 microliter 0.2% emulsion)	AUC (from instillation of treatment until return to baseline IOP) ([3]; treated eye) [mmHg × hrs]	Max ΔIOP ([3]; treated eye, single dose 0.2% emulsion) [mmHg]	Pressure dropped by (maximal ocular hypotensive effect) ([3]; treated right eye, 3 h post-application, P<0.01) [mmHg]	neurobehavioral scores / clinical symptoms ([4]; 8 mg/kg i.v. 30 min post-ischemia)	animals showing no signs ([4]; three days post-ischemia) [%]	animals showing only mild signs ([4]; three days post-ischemia) [%]
CCCCCCC(C)(C)c1cc(OC(C)=O)c([C@H]2C=C(C(=O)NCCO)[C@H]3C[C@@H]2C3(C)C)c(OC(C)=O)c1 [HU-271]	37	–	–	–	–	–	–	–	–	–	–	–	–	–
CCCCCCC(C)(C)c1cc(OC(C)=O)c([C@H]2C=C(C(=O)O)[C@H]3C[C@@H]2C3(C)C)c(OC(C)=O)c1 [(+)-4-[4-DMH-2,6 diacetoxyphenyl]-2-carboxy-6,6-dimethylbicyclo[3.1.1]hept-2-en]	–	very lipophilic	-7.8 ± 8.1	2.5±0.9	-2.5 ± 0.9	3	7	over five hours	-10.9 ± 10.9	-3.2 ± 0.7	3.2±0.7	improvement in neurobehavioral scores; also recorded: statistically significant improvement compared to controls	90	10
